Test results from article PMC9851200, “Multiparameter phenotypic screening for endogenous TFEB and TFE3 translocation identifies novel chemical series modulating lysosome function” (Autophagy, 2022).

What was measured:
Type in all cases: binding
[1] = target: kinases (KINOMEscan panel) (Homo sapiens, UniProt P07332); details: kinase FES; NEW KINOMEscan
[2] = target: T1, kinases (KINOMEscan panel) (Homo sapiens, UniProt Q9Y2U5); details: MAP3K2; NEW KINOMEscan
T1 sequence (Q9Y2U5 1-619): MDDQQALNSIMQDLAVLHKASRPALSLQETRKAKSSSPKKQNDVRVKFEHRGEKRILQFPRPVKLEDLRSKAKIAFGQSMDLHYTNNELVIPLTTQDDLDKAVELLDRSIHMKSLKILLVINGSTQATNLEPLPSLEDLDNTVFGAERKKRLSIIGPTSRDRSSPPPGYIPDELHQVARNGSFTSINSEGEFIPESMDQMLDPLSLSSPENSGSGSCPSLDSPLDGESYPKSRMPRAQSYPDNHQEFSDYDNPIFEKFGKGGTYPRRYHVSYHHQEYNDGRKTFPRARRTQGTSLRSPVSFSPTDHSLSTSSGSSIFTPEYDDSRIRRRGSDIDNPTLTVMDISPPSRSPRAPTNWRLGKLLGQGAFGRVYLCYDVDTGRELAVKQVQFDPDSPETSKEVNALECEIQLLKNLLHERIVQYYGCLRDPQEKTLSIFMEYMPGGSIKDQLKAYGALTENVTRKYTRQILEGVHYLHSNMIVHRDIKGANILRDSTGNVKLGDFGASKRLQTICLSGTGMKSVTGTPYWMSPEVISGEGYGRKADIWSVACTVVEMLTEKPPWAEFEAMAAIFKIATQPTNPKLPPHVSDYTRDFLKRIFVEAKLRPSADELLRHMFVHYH

[3] = target: T2, kinases (KINOMEscan panel) (Homo sapiens, UniProt Q96PY6); details: kinase NEK1; NEW KINOMEscan
T2 sequence (Q96PY6 1-1258): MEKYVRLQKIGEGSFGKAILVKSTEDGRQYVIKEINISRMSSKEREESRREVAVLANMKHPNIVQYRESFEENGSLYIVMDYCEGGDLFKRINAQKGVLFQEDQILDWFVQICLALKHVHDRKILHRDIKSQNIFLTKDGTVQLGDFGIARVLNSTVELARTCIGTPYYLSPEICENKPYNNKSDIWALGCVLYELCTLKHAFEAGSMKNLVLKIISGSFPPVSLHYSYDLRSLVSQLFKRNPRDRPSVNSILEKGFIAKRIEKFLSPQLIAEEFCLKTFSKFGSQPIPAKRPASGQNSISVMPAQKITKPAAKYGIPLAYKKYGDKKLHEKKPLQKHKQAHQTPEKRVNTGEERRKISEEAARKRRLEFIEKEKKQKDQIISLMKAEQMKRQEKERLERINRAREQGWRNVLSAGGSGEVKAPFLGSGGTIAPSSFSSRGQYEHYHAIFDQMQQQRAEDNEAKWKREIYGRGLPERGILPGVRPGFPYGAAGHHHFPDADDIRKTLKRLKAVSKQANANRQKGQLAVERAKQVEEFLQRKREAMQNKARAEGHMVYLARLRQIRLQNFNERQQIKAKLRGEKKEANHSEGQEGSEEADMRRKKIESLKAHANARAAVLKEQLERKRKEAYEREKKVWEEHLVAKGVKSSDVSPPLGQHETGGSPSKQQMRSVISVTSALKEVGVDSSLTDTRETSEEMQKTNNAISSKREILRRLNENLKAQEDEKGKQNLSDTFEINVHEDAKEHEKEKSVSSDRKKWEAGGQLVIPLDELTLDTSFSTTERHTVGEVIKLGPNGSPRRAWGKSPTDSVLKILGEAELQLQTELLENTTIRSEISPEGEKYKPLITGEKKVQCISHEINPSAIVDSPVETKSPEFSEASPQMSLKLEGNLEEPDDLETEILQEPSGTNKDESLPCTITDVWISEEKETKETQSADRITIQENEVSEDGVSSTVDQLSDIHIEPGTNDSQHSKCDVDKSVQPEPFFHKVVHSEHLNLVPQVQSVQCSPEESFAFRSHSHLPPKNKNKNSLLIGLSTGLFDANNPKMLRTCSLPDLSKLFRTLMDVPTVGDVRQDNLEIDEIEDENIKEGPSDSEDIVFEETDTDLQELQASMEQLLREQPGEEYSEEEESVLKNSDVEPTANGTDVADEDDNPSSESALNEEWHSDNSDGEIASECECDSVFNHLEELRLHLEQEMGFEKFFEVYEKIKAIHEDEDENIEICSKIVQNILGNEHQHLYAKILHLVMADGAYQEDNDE

[4] = target: T3, kinases (KINOMEscan panel) (Homo sapiens, UniProt P78356); details: PIP4K2B; NEW KINOMEscan
T3 sequence (P78356 1-416): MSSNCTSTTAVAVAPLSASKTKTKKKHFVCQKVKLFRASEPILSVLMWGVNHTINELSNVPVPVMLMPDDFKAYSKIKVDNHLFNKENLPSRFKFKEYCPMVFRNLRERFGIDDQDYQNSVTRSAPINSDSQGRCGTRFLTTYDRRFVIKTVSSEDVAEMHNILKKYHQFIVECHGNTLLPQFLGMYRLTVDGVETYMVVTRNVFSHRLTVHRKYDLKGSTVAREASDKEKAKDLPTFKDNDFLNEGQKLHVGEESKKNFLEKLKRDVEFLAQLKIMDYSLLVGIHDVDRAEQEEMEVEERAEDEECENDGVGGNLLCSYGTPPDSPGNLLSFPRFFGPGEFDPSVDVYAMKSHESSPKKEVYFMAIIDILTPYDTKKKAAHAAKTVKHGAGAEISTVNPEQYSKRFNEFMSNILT

[5] = target: T4, kinases (KINOMEscan panel) (Homo sapiens, UniProt Q9HBY8); details: NEW KINOMEscan
T4 sequence (Q9HBY8 1-367): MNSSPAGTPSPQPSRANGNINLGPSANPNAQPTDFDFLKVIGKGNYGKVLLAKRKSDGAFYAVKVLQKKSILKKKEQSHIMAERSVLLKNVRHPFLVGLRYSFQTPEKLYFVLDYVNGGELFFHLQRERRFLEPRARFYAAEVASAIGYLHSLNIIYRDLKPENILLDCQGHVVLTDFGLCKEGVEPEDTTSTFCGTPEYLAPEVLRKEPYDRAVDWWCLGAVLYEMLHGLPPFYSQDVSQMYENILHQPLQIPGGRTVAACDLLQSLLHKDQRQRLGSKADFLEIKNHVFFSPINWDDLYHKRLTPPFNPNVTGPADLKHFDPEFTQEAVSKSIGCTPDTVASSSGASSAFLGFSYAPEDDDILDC

Chain of kinases (KINOMEscan panel) (Homo sapiens, UniProt P07332) (P07332 whole entry): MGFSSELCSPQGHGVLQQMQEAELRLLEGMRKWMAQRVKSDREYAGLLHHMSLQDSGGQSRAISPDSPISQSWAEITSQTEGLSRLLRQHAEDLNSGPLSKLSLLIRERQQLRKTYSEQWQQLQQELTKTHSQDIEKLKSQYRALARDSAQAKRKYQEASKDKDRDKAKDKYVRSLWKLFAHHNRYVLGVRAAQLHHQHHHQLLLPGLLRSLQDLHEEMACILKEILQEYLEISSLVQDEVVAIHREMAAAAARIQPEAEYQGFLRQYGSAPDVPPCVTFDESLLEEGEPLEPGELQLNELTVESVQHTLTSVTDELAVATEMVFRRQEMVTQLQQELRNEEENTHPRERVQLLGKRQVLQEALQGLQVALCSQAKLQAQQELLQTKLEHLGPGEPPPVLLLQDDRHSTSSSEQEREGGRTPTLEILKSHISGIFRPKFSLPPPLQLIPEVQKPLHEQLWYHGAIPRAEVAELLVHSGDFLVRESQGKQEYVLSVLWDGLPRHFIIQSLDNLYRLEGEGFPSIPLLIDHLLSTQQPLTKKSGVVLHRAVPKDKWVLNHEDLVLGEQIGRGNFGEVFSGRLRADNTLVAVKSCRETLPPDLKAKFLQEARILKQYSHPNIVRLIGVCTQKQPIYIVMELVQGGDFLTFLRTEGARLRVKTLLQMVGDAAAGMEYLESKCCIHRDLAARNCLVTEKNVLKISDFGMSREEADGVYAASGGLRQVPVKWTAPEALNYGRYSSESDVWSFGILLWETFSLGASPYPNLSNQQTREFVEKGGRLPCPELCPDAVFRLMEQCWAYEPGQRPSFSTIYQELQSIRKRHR

Row | SMILES | KINOMEscan FES [1] | KINOMEscan MAP3K2 [2] | KINOMEscan NEK1 [3] | KINOMEscan PIP4K2B [4] | KINOMEscan SGK2 [5]
1 | Cc1cccc(-c2nc(Nc3ccc4nn(C)cc4c3)c3ccccc3n2)n1 [NK167] | 0 | 0 | 0 | 0 | 0
2 | Cc1cccc(-c2nc(N(C)c3ccc4ncsc4c3)c3ccccc3n2)n1 [NK-161] | 4 | 0 | 0 | 0 | 15
